Test results published in ChEMBL document CHEMBL5038623, “Synthesis and bioactivities of new N-terminal dipeptide mimetics with aromatic amide moiety: Broad-spectrum antibacterial activity and high antineoplastic activity” (Eur J Med Chem, 2022).
Converted amounts (≈) assume the structure as drawn.

Assays:
Staphylococcus aureus [1] = experiment: Antibacterial activity against Staphylococcus aureus ATCC 6538 assessed as reduction in microbial growth after 24 hrs by broth dilution method; type: functional
Klebsiella pneumoniae = experiment: Antibacterial activity against Klebsiella pneumoniae ATCC 700603 assessed as reduction in microbial growth after 24 hrs by broth dilution method; type: functional
Escherichia coli [2] = experiment: Antibacterial activity against Escherichia coli ATCC25922 assessed as reduction in microbial growth after 24 hrs by broth dilution method; type: functional; details: ATCC 25922
[3] = Hemolytic activity in rabbit RBC measured after 1 hrs by microplate reader assay; type: toxicity, cell-based, Oryctolagus cuniculus, Erythrocyte; details: rabbit red blood cells (RBC)
Escherichia coli [4] = experiment: Antibacterial activity against Escherichia coli ATCC25922 assessed as zone of inhibition incubated for 12 hrs by disc diffusion method; type: functional, ATCC 25922
Staphylococcus aureus [5] = experiment: Antibacterial activity against Staphylococcus aureus ATCC 6538 assessed as zone of inhibition incubated for 12 hrs by disc diffusion method; type: functional
[6] = Selectivity index, HC50 for hemolytic activity in rabbit RBC to MIC for antibacterial activity against methicillin-resistant Staphylococcus aureus ATCC 33591; type: toxicity; details: rabbit red blood cells (RBC), read-out: Selectivity Index
Staphylococcus aureus [7] = experiment: Antibacterial activity against methicillin-resistant Staphylococcus aureus ATCC 33591 assessed as MIC incubated for 12 hrs

Row | SMILES | MIC (Staphylococcus aureus [1]) [µg/mL] | MIC (Klebsiella pneumoniae) [µg/mL] | MIC (Escherichia coli [2]) [µg/mL] | HC50 at 1 h [3] [µg/mL] | diameter of the inhibition zone (DIZ) (Escherichia coli [4]) [mm] | diameter of the inhibition zone (DIZ) (Staphylococcus aureus [5]) [mm] | selectivity ratio [6] | MIC (Staphylococcus aureus [7]) [µg/mL]
1 | Cc1ccc(NC(=O)[C@@H](N)C(C)C)cc1 | > 1250 | > 1250 | > 1250 |  |  |  |  | 
2 | C#Cc1cccc(NC(=O)[C@H](N)C(C)C)c1 | 10 | 20 | 39 | > 1250 | 10 | 11.5 | > 125 | 20 (≈ 92.5 µM)
3 | C#Cc1ccc(NC(=O)[C@@H](N)CC(C)C)cc1 | 5 | 10 | 10 | 789 | 14.5 | 17.7 | 158 | 10 (≈ 43.4 µM)
4 | C#Cc1cccc(NC(=O)[C@@H](N)Cc2ccccc2)c1 | 20 | 39 | 39 | > 1250 | 10 | 10.2 | > 62.5 | 20 (≈ 75.7 µM)
5 | CN[C@H](CC(C)C)C(=O)N[C@H]1C(=O)N[C@@H](CC(N)=O)C(=O)N[C@H]2C(=O)N[C@H]3C(=O)N[C@H](C(=O)N[C@H](C(=O)O)c4cc(O)cc(O)c4-c4cc3ccc4O)[C@H](O)c3ccc(c(Cl)c3)Oc3cc2cc(c3O[C@@H]2O[C@H](CO)[C@@H](O)[C@H](O)[C@H]2O[C@H]2C[C@](C)(N)[C@H](O)[C@H](C)O2)Oc2ccc(cc2Cl)[C@H]1O [VANCOMYCIN] | < 0.63 | 1250 | 156 |  |  |  |  | 1.25 (≈ 0.863 µM)
6 | CC(C)[C@H](N)C(=O)Nc1ccc(F)cc1 | 312 | 312 | 312 | > 1250 | 6 | 6 | > 4 | 
7 | CC(C)[C@H](N)C(=O)Nc1ccc(Cl)cc1 | 78 | 156 | 156 | > 1250 | 10 | 10.9 | > 16 | 78 (≈ 344 µM)
8 | C[C@H]1COc2c(N3CCN(C)CC3)c(F)cc3c(=O)c(C(=O)O)cn1c23.C[C@H]1COc2c(N3CCN(C)CC3)c(F)cc3c(=O)c(C(=O)O)cn1c23.O [LEVOFLOXACIN] | 1.25 | < 0.63 | 2.5 |  |  |  |  | 1.25
9 | CC(C)[C@H](N)C(=O)Nc1ccc(Br)cc1 | 39 | 78 | 39 | > 1250 | 11.8 | 11.8 | > 32 | 78 (≈ 288 µM)
